Experiment [1] in a line: Inhibition of Sulfurihydrogenibium yellowstonense YO3AOP1 carbonic anhydrase preincubated for 15 mins by CO2 hydration stopped-flow assay.
Experiment [2] is described as follows: Inhibition of Sulfurihydrogenibium azorense carbonic anhydrase preincubated for 15 mins by CO2 hydration stopped-flow assay.
Experiment [3] is described as follows: Inhibition of Helicobacter pylori alpha-carbonic anhydrase preincubated for 15 mins by CO2 hydration stopped-flow assay.

Molecules are shown by their SMILES.

On to `CC(=O)Nc1nnc(S(N)(=O)=O)s1` [ACETAZOLAMIDE], for which the Ki (as a rule, the dissociation constant of the complex between target and ligand, obtained from inhibition or displacement) was 0.004 µM in experiment [1] and 0.0009 µM in experiment [2].
For `S` [HYDROGEN SULFIDE] the same measures were 580 µM and 380 µM.
As to `N=C=[Se]` [ISOSELENOCYANATE], the Ki in experiment [3] is 730 µM; in experiment [1], 70 µM; in experiment [2], 490 µM.
On the same counts, the results for `I` [IODIDE] are 6050 µM, 860 µM and 870 µM.
With `CCN(CC)C(=S)S` [DITIOCARB], the values for the Ki in experiment [3], in experiment [1] and in experiment [2] were 5 µM, 4 µM and 3.1 µM, respectively.
On the same counts, the results for `Cl` [HYDROCHLORIC ACID] are 2700 µM, 8300 µM and 850 µM.
For `N=C=S` [ISOTHIOCYANATE] the same measures were 4100 µM, 710 µM and 580 µM.
Consider `F` [FLUORIDE ION], for which the inhibitory constant (Ki) in experiment [3] worked out at 4080 µM; in experiment [1], 417000 µM; in experiment [2], 980 µM.
Take `O=S(O)O` [SULFUROUS ACID]: the results for the Ki in experiment [3], in experiment [1] and in experiment [2] were 990 µM, 21100 µM and 950 µM, respectively.
On to `O=C(O)O` [BICARBONATE], for which the figures for the inhibitory constant (Ki) in experiment [1] and in experiment [2] were 33200 µM and 15700 µM, respectively.
Turning to `O=S(=O)(O)O` [SULFURIC ACID], the Ki turned out to be 820 µM in experiment [3], 820 µM in experiment [1] and 10000 µM in experiment [2].
`Br` [BROMIDE]: the figures for the Ki in experiment [3], in experiment [1] and in experiment [2] were 2410 µM, 49000 µM and 940 µM, respectively.
On the same counts, the results for `S=C(S)S` [CARBONOTRITHIOIC ACID] are 380 µM, 60 µM and 39 µM.
On to `NS(=O)(=O)O` [SULFAMATE], for which the Ki worked out at 80 µM in experiment [3], 42 µM in experiment [1] and 4.8 µM in experiment [2].

These data come from ChEMBL document CHEMBL2331088, “An α-carbonic anhydrase from the thermophilic bacterium Sulphurihydrogenibium azorense is the fastest enzyme known for the CO2 hydration reaction” (Bioorg Med Chem, 2013).
